According to US7700622B2, “p-38 kinase inhibitors” (Novartis AG, priority 2003, dated 2010):

These compounds were tested against T1, p38α kinase (Homo sapiens, UniProt Q16539) (assay: p38α assay (coupled ADP/NADH oxidation kinase assay)). Conditions: 60 min preincubation with p38α, 0.15 mM ATP, 37° C.; read-out: Activity (p-38) IC50.
T1 construct: purchased Upstate
Type: biochemical
Parameters: scale not given here
Experimental: cDNAs of human p38α and β were cloned by PCR. The α and β cDNAs were subcloned into DEST2 plasmid (Gateway, InVitrogen). His6-p38 fusion protein was expressed in E. coli and purified from bacterial lysates by affinity chromatography using Ni^+2-NTA-agarose. His6-p38 protein was activated by incubating with constitutively active MKK6. Active p38 was separated from MKK6 by affinity chromatography. Constitutively active MKK6 was generated in a manner similar to Raingeaud et al. [Mol. Cell.
The p38α assay employed is based on measurement of ADP released in the reaction of interest through NADH oxidation obtained by coupling with pyruvate kinase and lactate dehydrogenase reactions. The assays were performed in 384-well UV-plates. The final volume was 25 uL prepared from the addition of 2.5 uL compound dissolved in 10% DMSO, 17.5 uL of assay buffer and 5 uL of ATP. […] Test compounds are preincubated with p38α for 60 min and the reaction started by addition of ATP to 0.15 mM final concentration. Reaction rates were measured at 340 nm using SpectraMax plate-reading spectrophotometer for 10 min at 37° C. Inhibition data were analyzed by non-linear least squares regression using SigmaPlot.

T1 sequence (Q16539 whole entry): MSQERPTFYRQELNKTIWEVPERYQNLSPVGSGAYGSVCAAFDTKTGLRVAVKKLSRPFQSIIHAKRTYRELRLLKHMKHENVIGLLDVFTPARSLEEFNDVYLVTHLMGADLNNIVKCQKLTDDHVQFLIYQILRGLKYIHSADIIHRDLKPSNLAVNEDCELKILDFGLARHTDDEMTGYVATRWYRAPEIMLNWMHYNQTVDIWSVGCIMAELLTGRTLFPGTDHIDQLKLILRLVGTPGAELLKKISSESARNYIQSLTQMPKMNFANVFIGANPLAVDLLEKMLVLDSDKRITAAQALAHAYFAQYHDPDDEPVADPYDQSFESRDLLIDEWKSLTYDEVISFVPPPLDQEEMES

IC50, < 1 µM:
Cc1ccc(C(=O)NC2CC2)cc1-c1ccc(-c2nnco2)cc1 [Example 1, 6-Methyl4′-[1,3,4]oxadiazol-2-yl-biphenyl-3-carboxylic acid cyclopropylamide]
Cc1ccc(C(=O)NC2CC2)cc1-c1ccc(-c2nnc[nH]2)cc1 [Example 3, 6-Methyl4′-(4H-[1,2,4]triazol-3-yl)-biphenyl-3-carboxylic acid cyclopropylamide]
Cc1ccc(C(=O)NC2CC2)cc1-c1ccc(-c2nnco2)cn1 [Example 4, N-Cyclopropyl-4-methyl-3-(5-[1,3,4]oxadiazol-2-yl-pyridin-2-yl)-benzamide]
Cc1nnc(-c2ccc(-c3cc(C(=O)NC4CC4)ccc3C)nc2)o1 [Example 5, N-Cyclopropyl-4-methyl-3-[5-(5-methyl-[1,3,4]oxadiazol-2-yl)-pyridin-2-yl]-benzamide]
Cc1ccc(C(=O)NC2CC2)cc1-c1ccc2c(=O)n(Cc3ccccc3)cnc2c1 [Example 6, 3-(3-Benzyl-4-oxo-3,4-dihydro-quinazolin-7-yl)-N-cyclopropyl-4-methyl-benzamide]
Cc1ccc(C(=O)NC2CC2)cc1-c1ccc2c(=O)n(Cc3c(Cl)cccc3Cl)cnc2c1 [Example 7, N-Cyclopropyl-3-[3-(2,6-dichloro-benzyl)-4-oxo-3,4-dihydro-quinazolin-7-yl]-4-methyl-benzamide]
Cc1ccc(C(=O)NC2CC2)cc1-c1ccc2c(=O)n(Cc3ccc(Cl)c(Cl)c3)cnc2c1 [Example 8, N-Cyclopropyl-3-[3-(3,4-dichloro-benzyl)-4-oxo-3,4-dihydro-quinazolin-7-yl]-4-methyl-benzamide]
COc1ccc(Cn2cnc3cc(-c4cc(C(=O)NC5CC5)ccc4C)ccc3c2=O)cc1 [Example 9, N-Cyclopropyl-3-[3-(4-methoxy-benzyl)-4-oxo-3,4-dihydro-quinazolin-7-yl]-4-methyl-benzamide]
Cc1ccc(C(=O)NC2CC2)cc1-c1ccc2c(=O)[nH]cnc2c1 [Example 10, N-Cyclopropyl-4-methyl-3-(4-oxo-3,4-dihydro-quinazolin-7-yl)-benzamide]
Cc1ccc(C(=O)NC2CC2)cc1-c1ccc(C(=O)c2ccccc2)cc1 [Example 11, 4′-Benzoyl-6-methyl-biphenyl-3-carboxylic acid cyclopropylamide]
COc1ccc(CNC(=O)c2ccc(-c3cc(C(=O)NC4CC4)ccc3C)nc2)cc1 [Example 12, 6-(5-Cyclopropylcarbamoyl-2-methyl-phenyl)-N-(4-methoxy-benzyl)-nicotinamide]
COc1ccc(CNC(=O)c2cnc(-c3cc(C(=O)NC4CC4)ccc3C)nc2N)cc1 [Example 13, N-(4-Methoxybenzyl)-2-[(5-cyclopropylaminocarbonyl)-2-methylphenyl]-4-aminopyrimidine-5-carboxyamide]
Cc1ccc(C(=O)NC2CC2)cc1-c1ccc(C(=O)c2ccccc2)c(N)c1 [Example 14, 3′-Amino-4′-benzoyl-6-methyl-biphenyl-3-carboxylic acid cyclopropylamide]
Cc1ccc(C(=O)NC2CC2)cc1-c1ccc2c(-c3ccccc3)nc(=O)[nH]c2c1 [Example 15, N-Cyclopropyl-4-methyl-3-(2-oxo-4-phenyl-1,2-dihydro-quinazolin-7-yl)-benzamide]
Cc1ccc(C(=O)NC2CC2)cc1-c1ccc2c(-c3ccccc3)ncnc2c1 [Example 16, N-Cyclopropyl-4-methyl-3-(4-phenyl-quinazolin-7-yl)-benzamide]
CC(=O)Nc1cc(-c2cc(C(=O)NC3CC3)ccc2C)ccc1C(=O)c1ccccc1 [Example 17, 3′-Acetylamino4′-benzoyl-6-methyl-biphenyl-3-carboxylic acid cyclopropylamide]
